Key:
Assay type in all cases: in vivo
[1] = test system: heartshape false pickerelweed (Monochoria vaginalis (Burm.f.) C.Presl); assay: Test Example 1: herbicidal effect by soil application to paddy field; conditions: paddy field soil application; active ingredient 1,000 g per 1 hectare; wettable powder added dropwise to water surface the day after sowing; examined on the 21st day after application
Method in brief: (§1)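 Under greenhouse conditions, seeds sown on puddled paddy soil in 100 cm2 pots under 3 cm of standing water received the test compound; injury was assessed with a standard scoring scheme three weeks (day 21) after treatment.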

[2] = test system: early watergrass (Echinochloa oryzicola Vasing); assay: as above; conditions: paddy field soil application; active ingredient 1,000 g per 1 hectare; wettable powder added dropwise to water surface the day after sowing; examined on the 21st day after application
Method in brief: as §1

[3] = test system: Japanese bulrush (Scirpus juncoides Roxb.); assay: as above; conditions: paddy field soil application; active ingredient 1,000 g per 1 hectare; wettable powder added dropwise to water surface the day after sowing; examined on the 21st day after application
Method in brief: as §1

[4] = test system: barnyardgrass (Echinochloa crus-galli (L.) P. Beauv. var. crus-galli); assay: Test Example 3: herbicidal effect by application to upland field (foliage treatment); conditions: foliage treatment, plants grown two weeks, 1,000 g active ingredient per hectare, 14th day after application
Method in brief: (§2)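 Foliage treatment, greenhouse: 2-week-old plants in field soil; wettable powder in water sprayed over the top at 1,000 g a.i./ha (1,000 L/ha); rating on day 14 post-application.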

[5] = test system: green foxtail (Setaria viridis (L.) P. Beauv.); assay: as above; conditions: foliage treatment, plants grown two weeks, 1,000 g active ingredient per hectare, 14th day after application
Method in brief: as §2

[6] = test system: velvetleaf (Abutilon theophrasti medicus); assay: as above; conditions: foliage treatment, plants grown two weeks, 1,000 g active ingredient per hectare, 14th day after application
Method in brief: as §2

[7] = test system: slender amaranth (Amaranthus viridis L.); assay: as above; conditions: foliage treatment, plants grown two weeks, 1,000 g active ingredient per hectare, 14th day after application
Method in brief: as §2

[8] = test system: barnyardgrass (Echinochloa crus-galli (L.) P. Beauv. var. crus-galli); assay: Test Example 2: herbicidal effect by soil application to upland field; conditions: soil surface spray, upland field soil, 1,000 g active ingredient per hectare, 21st day after application
Method in brief: (§3)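 In this soil-application test, sown and soil-covered pots are sprayed uniformly with the formulation diluted in water, giving 1,000 g of active ingredient per ha in a volume of 1,000 L per ha. Plants then grow in a greenhouse for 21 days before herbicidal scoring by a standard scale.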

[9] = test system: green foxtail (Setaria viridis (L.) P. Beauv.); assay: as above; conditions: soil surface spray, upland field soil, 1,000 g active ingredient per hectare, 21st day after application
Method in brief: as §3

[10] = test system: velvetleaf (Abutilon theophrasti medicus); assay: as above; conditions: soil surface spray, upland field soil, 1,000 g active ingredient per hectare, 21st day after application
Method in brief: as §3

[11] = test system: slender amaranth (Amaranthus viridis L.); assay: as above; conditions: soil surface spray, upland field soil, 1,000 g active ingredient per hectare, 21st day after application
Method in brief: as §3

## CCCS(=O)(=O)Cn1c(C(F)(F)F)ccc(C(=O)C2=C(O)CCCC2=O)c1=O [I-51]
[1]
  herbicidal effect, Monochoria vaginalis (Burm. f.) C. Presl: 5 (90% or more of herbicidal effect and crop phytotoxicity)
[2]
  herbicidal effect, Echinochloa oryzicola Vasing: 5 (90% or more of herbicidal effect and crop phytotoxicity)
[3]
  herbicidal effect, Scirpus juncoides Roxb.: 5 (90% or more of herbicidal effect and crop phytotoxicity)
[4]
  herbicidal effect (index), Barnyardgrass: 5 (90% or more of herbicidal effect and crop phytotoxicity)
[5]
  herbicidal effect (index), Green Foxtail: 5 (90% or more of herbicidal effect and crop phytotoxicity)
[6]
  herbicidal effect (index), Velvetleaf: 5 (90% or more of herbicidal effect and crop phytotoxicity)
[7]
  herbicidal effect (index), Slender Amaranth: 5 (90% or more of herbicidal effect and crop phytotoxicity)
[8]
  herbicidal effect (index), Barnyardgrass: 5 (90% or more of herbicidal effect and crop phytotoxicity)
[9]
  herbicidal effect (index), Green Foxtail: 5 (90% or more of herbicidal effect and crop phytotoxicity)
[10]
  herbicidal effect (index), Velvetleaf: 5 (90% or more of herbicidal effect and crop phytotoxicity)
[11]
  herbicidal effect (index), Slender Amaranth: 5 (90% or more of herbicidal effect and crop phytotoxicity)

## O=C1CCCC(O)=C1C(=O)c1ccc(C(F)(F)F)n(CSC2CC2)c1=O [I-52]
[1]
  herbicidal effect, Monochoria vaginalis (Burm. f.) C. Presl: 5 (90% or more of herbicidal effect and crop phytotoxicity)
[2]
  herbicidal effect, Echinochloa oryzicola Vasing: 5 (90% or more of herbicidal effect and crop phytotoxicity)
[3]
  herbicidal effect, Scirpus juncoides Roxb.: 5 (90% or more of herbicidal effect and crop phytotoxicity)
[4]
  herbicidal effect (index), Barnyardgrass: 5 (90% or more of herbicidal effect and crop phytotoxicity)
[5]
  herbicidal effect (index), Green Foxtail: 5 (90% or more of herbicidal effect and crop phytotoxicity)
[6]
  herbicidal effect (index), Velvetleaf: 5 (90% or more of herbicidal effect and crop phytotoxicity)
[7]
  herbicidal effect (index), Slender Amaranth: 5 (90% or more of herbicidal effect and crop phytotoxicity)
[8]
  herbicidal effect (index), Barnyardgrass: 5 (90% or more of herbicidal effect and crop phytotoxicity)
[9]
  herbicidal effect (index), Green Foxtail: 5 (90% or more of herbicidal effect and crop phytotoxicity)
[10]
  herbicidal effect (index), Velvetleaf: 5 (90% or more of herbicidal effect and crop phytotoxicity)
[11]
  herbicidal effect (index), Slender Amaranth: 5 (90% or more of herbicidal effect and crop phytotoxicity)

## O=C1CCCC(O)=C1C(=O)c1ccc(C(F)(F)F)n(CS(=O)(=O)C2CC2)c1=O [I-53]
[1]
  herbicidal effect, Monochoria vaginalis (Burm. f.) C. Presl: 5 (90% or more of herbicidal effect and crop phytotoxicity)
[2]
  herbicidal effect, Echinochloa oryzicola Vasing: 5 (90% or more of herbicidal effect and crop phytotoxicity)
[3]
  herbicidal effect, Scirpus juncoides Roxb.: 5 (90% or more of herbicidal effect and crop phytotoxicity)
[4]
  herbicidal effect (index), Barnyardgrass: 5 (90% or more of herbicidal effect and crop phytotoxicity)
[5]
  herbicidal effect (index), Green Foxtail: 5 (90% or more of herbicidal effect and crop phytotoxicity)
[6]
  herbicidal effect (index), Velvetleaf: 5 (90% or more of herbicidal effect and crop phytotoxicity)
[7]
  herbicidal effect (index), Slender Amaranth: 5 (90% or more of herbicidal effect and crop phytotoxicity)
[8]
  herbicidal effect (index), Barnyardgrass: 5 (90% or more of herbicidal effect and crop phytotoxicity)
[9]
  herbicidal effect (index), Green Foxtail: 5 (90% or more of herbicidal effect and crop phytotoxicity)
[10]
  herbicidal effect (index), Velvetleaf: 5 (90% or more of herbicidal effect and crop phytotoxicity)
[11]
  herbicidal effect (index), Slender Amaranth: 5 (90% or more of herbicidal effect and crop phytotoxicity)

## CC(C)S(=O)(=O)Cn1c(C(F)(F)F)ccc(C(=O)C2=C(O)CCCC2=O)c1=O [I-54]
[1]
  herbicidal effect, Monochoria vaginalis (Burm. f.) C. Presl: 5 (90% or more of herbicidal effect and crop phytotoxicity)
[2]
  herbicidal effect, Echinochloa oryzicola Vasing: 5 (90% or more of herbicidal effect and crop phytotoxicity)
[3]
  herbicidal effect, Scirpus juncoides Roxb.: 5 (90% or more of herbicidal effect and crop phytotoxicity)
[4]
  herbicidal effect (index), Barnyardgrass: 5 (90% or more of herbicidal effect and crop phytotoxicity)
[5]
  herbicidal effect (index), Green Foxtail: 5 (90% or more of herbicidal effect and crop phytotoxicity)
[6]
  herbicidal effect (index), Velvetleaf: 5 (90% or more of herbicidal effect and crop phytotoxicity)
[7]
  herbicidal effect (index), Slender Amaranth: 5 (90% or more of herbicidal effect and crop phytotoxicity)
[8]
  herbicidal effect (index), Barnyardgrass: 5 (90% or more of herbicidal effect and crop phytotoxicity)
[9]
  herbicidal effect (index), Green Foxtail: 4 (70 to less than 90% of herbicidal effect and crop phytotoxicity)
[10]
  herbicidal effect (index), Velvetleaf: 5 (90% or more of herbicidal effect and crop phytotoxicity)
[11]
  herbicidal effect (index), Slender Amaranth: 5 (90% or more of herbicidal effect and crop phytotoxicity)

## CC(C)(C)SCn1c(C(F)(F)F)ccc(C(=O)C2=C(O)CCCC2=O)c1=O [I-55]
[1]
  herbicidal effect, Monochoria vaginalis (Burm. f.) C. Presl: 5 (90% or more of herbicidal effect and crop phytotoxicity)
[2]
  herbicidal effect, Echinochloa oryzicola Vasing: 5 (90% or more of herbicidal effect and crop phytotoxicity)
[3]
  herbicidal effect, Scirpus juncoides Roxb.: 5 (90% or more of herbicidal effect and crop phytotoxicity)
[4]
  herbicidal effect (index), Barnyardgrass: 5 (90% or more of herbicidal effect and crop phytotoxicity)
[5]
  herbicidal effect (index), Green Foxtail: 5 (90% or more of herbicidal effect and crop phytotoxicity)
[6]
  herbicidal effect (index), Velvetleaf: 5 (90% or more of herbicidal effect and crop phytotoxicity)
[7]
  herbicidal effect (index), Slender Amaranth: 5 (90% or more of herbicidal effect and crop phytotoxicity)
[8]
  herbicidal effect (index), Barnyardgrass: 5 (90% or more of herbicidal effect and crop phytotoxicity)
[9]
  herbicidal effect (index), Green Foxtail: 5 (90% or more of herbicidal effect and crop phytotoxicity)
[10]
  herbicidal effect (index), Velvetleaf: 5 (90% or more of herbicidal effect and crop phytotoxicity)
[11]
  herbicidal effect (index), Slender Amaranth: 5 (90% or more of herbicidal effect and crop phytotoxicity)

## CC(C)(C)S(=O)(=O)Cn1c(C(F)(F)F)ccc(C(=O)C2=C(O)CCCC2=O)c1=O [I-56]
[1]
  herbicidal effect, Monochoria vaginalis (Burm. f.) C. Presl: 5 (90% or more of herbicidal effect and crop phytotoxicity)
[2]
  herbicidal effect, Echinochloa oryzicola Vasing: 5 (90% or more of herbicidal effect and crop phytotoxicity)
[3]
  herbicidal effect, Scirpus juncoides Roxb.: 5 (90% or more of herbicidal effect and crop phytotoxicity)
[4]
  herbicidal effect (index), Barnyardgrass: 5 (90% or more of herbicidal effect and crop phytotoxicity)
[5]
  herbicidal effect (index), Green Foxtail: 5 (90% or more of herbicidal effect and crop phytotoxicity)
[6]
  herbicidal effect (index), Velvetleaf: 5 (90% or more of herbicidal effect and crop phytotoxicity)
[7]
  herbicidal effect (index), Slender Amaranth: 5 (90% or more of herbicidal effect and crop phytotoxicity)
[8]
  herbicidal effect (index), Barnyardgrass: 4 (70 to less than 90% of herbicidal effect and crop phytotoxicity)
[9]
  herbicidal effect (index), Green Foxtail: 5 (90% or more of herbicidal effect and crop phytotoxicity)
[10]
  herbicidal effect (index), Velvetleaf: 5 (90% or more of herbicidal effect and crop phytotoxicity)
[11]
  herbicidal effect (index), Slender Amaranth: 5 (90% or more of herbicidal effect and crop phytotoxicity)

## O=C1CCCC(O)=C1C(=O)c1ccc(C(F)(F)F)n(CSCC2CC2)c1=O [I-57]
[1]
  herbicidal effect, Monochoria vaginalis (Burm. f.) C. Presl: 5 (90% or more of herbicidal effect and crop phytotoxicity)
[2]
  herbicidal effect, Echinochloa oryzicola Vasing: 5 (90% or more of herbicidal effect and crop phytotoxicity)
[3]
  herbicidal effect, Scirpus juncoides Roxb.: 5 (90% or more of herbicidal effect and crop phytotoxicity)
[4]
  herbicidal effect (index), Barnyardgrass: 5 (90% or more of herbicidal effect and crop phytotoxicity)
[5]
  herbicidal effect (index), Green Foxtail: 5 (90% or more of herbicidal effect and crop phytotoxicity)
[6]
  herbicidal effect (index), Velvetleaf: 5 (90% or more of herbicidal effect and crop phytotoxicity)
[7]
  herbicidal effect (index), Slender Amaranth: 5 (90% or more of herbicidal effect and crop phytotoxicity)
[8]
  herbicidal effect (index), Barnyardgrass: 5 (90% or more of herbicidal effect and crop phytotoxicity)
[9]
  herbicidal effect (index), Green Foxtail: 5 (90% or more of herbicidal effect and crop phytotoxicity)
[10]
  herbicidal effect (index), Velvetleaf: 5 (90% or more of herbicidal effect and crop phytotoxicity)
[11]
  herbicidal effect (index), Slender Amaranth: 5 (90% or more of herbicidal effect and crop phytotoxicity)

## O=C1CCCC(O)=C1C(=O)c1ccc(C(F)(F)F)n(CS(=O)(=O)CC2CC2)c1=O [I-58]
[1]
  herbicidal effect, Monochoria vaginalis (Burm. f.) C. Presl: 5 (90% or more of herbicidal effect and crop phytotoxicity)
[2]
  herbicidal effect, Echinochloa oryzicola Vasing: 5 (90% or more of herbicidal effect and crop phytotoxicity)
[3]
  herbicidal effect, Scirpus juncoides Roxb.: 5 (90% or more of herbicidal effect and crop phytotoxicity)
[4]
  herbicidal effect (index), Barnyardgrass: 5 (90% or more of herbicidal effect and crop phytotoxicity)
[5]
  herbicidal effect (index), Green Foxtail: 5 (90% or more of herbicidal effect and crop phytotoxicity)
[6]
  herbicidal effect (index), Velvetleaf: 5 (90% or more of herbicidal effect and crop phytotoxicity)
[7]
  herbicidal effect (index), Slender Amaranth: 5 (90% or more of herbicidal effect and crop phytotoxicity)
[8]
  herbicidal effect (index), Barnyardgrass: 5 (90% or more of herbicidal effect and crop phytotoxicity)
[9]
  herbicidal effect (index), Green Foxtail: 5 (90% or more of herbicidal effect and crop phytotoxicity)
[10]
  herbicidal effect (index), Velvetleaf: 5 (90% or more of herbicidal effect and crop phytotoxicity)
[11]
  herbicidal effect (index), Slender Amaranth: 5 (90% or more of herbicidal effect and crop phytotoxicity)

Source: US8076487B2, “Pyridone derivative and herbicide” (Kumiai Chemical Industry Co., Ltd., priority 2006, dated 2011)
